Tests used:
[1] = test system: p-AKT, p-STAT5; test: pharmacodynamic study in M0-91 tumors xenografted in mice; format: in vivo
Method: We next analyzed the pharmacodynamic effects of HSP90 inhibition in both HEL and M0-91 tumors xenografted in mice. Unlike the cultured cells, the use of the in vivo model allows real-time monitoring of HSP90-dependent pathways inhibition.
Four- to 6-week-old nu/nu athymic female mice were obtained from Taconic Farms. Experiments were carried out under an Institutional Animal Care and Use Committee-approved protocol, and institutional guidelines for the proper and humane use of animals in research were followed. HEL and M0-91 cells were subcutaneously implanted in the right flank of mice using a 20-gauge needle and allowed to grow. […] For this assay, tumors were allowed to reach 6-8 mm in diameter before treatment. […] Tumors were homogenized and proteins analyzed by western blot as described above.

[2] = PU-H71 tumor concentrations in MDA-MB-468 tumor-bearing mice (PET-predicted, simulated, LC-MS/MS); conditions: 75 mg/kg 1× week
[3] = in vivo; conditions: mouse
[4] = test system: Raf-1, Akt; test: onco-client protein degradation in MDA-MB-468 cells (Western blot); format: cell-based; conditions: Homo sapiens, in vitro, 24 h
[5] = target: 359 kinases; test: scanMAX kinase screen (Ambit); format: binding; conditions: 10 μM
[6] = test system: MDA-MB-468 tumors; test: efficacy study in MDA-MB-468 xenografted tumors; format: in vivo, mice; conditions: 75 mg/kg, 1× week
Method: Mice (n=5) bearing MDA-MB-468 tumors reaching a volume of 100-150 mm^3 were treated i.p. (i.p.) using different doses and schedules, as indicated. Tumor volume was determined by measurement with Vernier calipers, and tumor volume was calculated as the product of its length×width^2×0.4. Tumor volume was expressed on indicated days as the median tumor volume ±SD indicated for groups of mice. Percent (%) tumor growth inhibition values were measured on the final day of study for drug-treated compared with vehicle treated mice and are calculated as 100×{1−[(TreatedFinal day−TreatedDay 1)/(ControlFinal day−ControlDay 1)]}. Tumor regression values were determined by calculating the ratio of median tumor volumes at the time when treatment was initiated to median tumor volume on the final day of study for a given treatment group. Percent (%) tumor regression is 100×[1−(TreatedFinal day/TreatedDay 1)].

[7] = test system: MDA-MB-468 cells; test: apoptosis of MDA-MB-468 cells (Ethidium Bromide/Acridine Orange); format: cell-based, human; conditions: 48 h
Excerpt: As noted in FIG. 40B, several tumors are more sensitive to HSP90 inhibition than predicted from the preliminary data generated on cell lines.

[8] = mouse, in vivo
[9] = test system: HSP90; test: 131I-PU-H71 saturation binding in intact cancer cells; format: cell-based
Excerpt: The solutions were shaken in an orbital shaker and after 1 hr the cells were isolated and washed with ice cold Tris-buffered saline using a Brandel cell harvester. […] To calculate the percentage of HSP90, cellular HSP90 expression was quantified by using standard curves created of recombinant HSP90 purified from HeLa cells (Stressgen#ADI-SPP-770).

[10] = test system: caspase-3,7; test: caspase 3,7 activation assay in AML cell lines; format: cell-based; conditions: 24 h
Method: A ten-fold, in MOLM-13 and M0-91, and two-fold, in Kasumi-1 and SKNO-1, increase in caspase-3,7 activation was observed as early as 24 h. Essentially no live cells were detected for the M0-91 cell line after 48 h of HSP90 inhibitor treatment. In the most sensitive cells, MOLM-13 and M0-91, apoptosis was associated with downregulation of the anti-apoptotic molecule Bcl-xL.
Cells were plated and treated as described in the growth inhibition assay section. Following a 24 h or 48 h exposure of cells to Hsp90 inhibitors, 100 μL buffer containing 10 mM Hepes, pH 7.5, 2 mM EDTA, 0.1% CHAPS, 0.1 mg/mL PMSF, Complete Protease Inhibitor mix (#1697498; Roche), and the caspase substrate Z-DEVD-R110 (#R22120; Molecular Probes) at 25 μM was added to each well. Plates were placed on an orbital shaker to promote cell lysis and reaction. The fluorescence signal of each well was measured in an Analyst GT (Molecular Dev ices) microplate reader (excitation 485 nm; emission at 530 nm). The percentage increase in caspase-3,7 activity was calculated by comparison of the fluorescence reading obtained from treated versus control cells. All experimental data were analyzed using SOFTmax Pro 4.3.1 and plotted using Prism 4.0 (Graphpad Software Inc., San Diego, Calif.).

[11] = test system: breast cancer tumor specimens; test: ex vivo sensitivity of breast cancer fresh tissue sections to PU-H71; format: cell-based, human; conditions: TNBC resistant (PT#14)
Excerpt: From preliminary analyses we have learned that fresh tissue slicing provides a quick and more efficient ex vivo method for HSP90 inhibition evaluation than primary cell isolation. In addition, it preserves the cancer cells in the endogenous environment of the surrounding tissue. This is important since the interaction between stromal cells and tumor cells is known to play a major role in cancer growth and progression. In this method, the tissue (i.e. lesion) is placed in a plastic mold and embedded in 6% agarose. The agarose-embedded tissue is then mounted on the stage of the Vibratome that is submersed in a chilled reservoir (for tissue preservation) containing MEM with 1% penicillin/streptomycin. The tissue is then sliced using metal blades producing serial sections of the lesion that are 200 μm thick. Each section (minus the surrounding agarose-embedding media) is immediately placed in a 24-well tissue culture plate containing MEM with 1% penicillin/streptomycin. From a 5 mm×5 mm piece of tissue approximately 25 sections are produced. This allows for replicate analyses of tissue sections treated with a minimum of 4 doses of the HSP90 inhibitor and one with vehicle only. Replicates can be assayed by both IHC as well as viability assays (automatic plate reader or cytospin preparation) once tissue section undergoes enzymatic dissociation by brief exposure to dispase. […]

[12] = test system: Raf-1, Akt; test: pharmacodynamic analysis of MDA-MB-468 tumors (Western blot); format: in vivo, mice; conditions: Mus musculus, MDA-MB-468, 24 h
[13] = [124I]-PU-H71 PET in cancer patients, tumor exposure to PU-H71; format: in vivo, human

## CC(C)NCCCn1c(Sc2cc3c(cc2I)OCO3)nc2c(N)ncnc21 [PU-H71]
[1]
  duration of apoptosis after one dose: 96 h
[2]; 24 h after last dose
  actual tumor concentration by LC-MS/MS: 5.53±0.26
[2]; 96 h after last dose
  actual tumor concentration by LC-MS/MS: 3.09±1.40
[3]; in vivo, 5 mg/kg
  concentration at 24 h: 430 nM
[3]; tumor, 5 mg/kg
  concentration at 24 h: 370 nM
[3]; tumor, 25 mg/kg
  concentration at 24 h: 1830 nM
[3]; tumor, 50 mg/kg
  concentration at 24 h: 3670 nM
[3]; tumor, 75 mg/kg
  concentration at 48 h: 3500 ± 270 nM
  concentration at 96 h: 1290 ± 290 nM
  concentration at 120 h: 690 ± 250 nM
[4]; read-out: EC50 Akt, onco-client protein degradation
  EC50: 0.15 ± 0.02 µM
[4]; read-out: EC50 Raf-1, onco-client protein degradation
  EC50: 0.13 ± 0.02 µM
[5]
  kinase hits: Only SNARK (NUAK family SNF1-like kinase 2)
[6]
  anti-tumor effect: significant tumor growth inhibition
[7]; 0.5 μM
  cells undergoing apoptosis: about 50%
[7]; about 5 μM
  cells undergoing apoptosis: about 100%
[8]
  AUC tumor relative to AUC blood: 15 fold
  area under the blood time-activity concentration curve: 0.78 % ID/g-h
  area under the tumor time-activity concentration curve: 11.4 % ID/g-h
[9]; K562 and other established t(9;22)+ CML cell lines
  fraction of total cellular HSP90 bound: 10.3-23%
[9]; MDA-MB-468 cells
  fraction of total cellular HSP90 bound: approximately 30%
[10]; Kasumi-1 and SKNO-1
  increase in caspase-3,7 activation: two-fold
[10]; MOLM-13 and M0-91
  increase in caspase-3,7 activation: ten-fold
[11]
  apoptosis: no apoptosis noted at any of the tested concentrations
[12]; read-out: EC50 Akt, tumor concentration by PET vs pharmacodynamic effect
  EC50: 0.09 ± 0.08 µM
[12]; read-out: EC50 Raf-1, tumor concentration by PET vs pharmacodynamic effect
  EC50: 0.24 ± 0.03 µM
[13]; 10 mg/m^2 once a week for two weeks
  tumor AUC0-336h: 54 μM-h
[13]; left lung, 80 mg/m2 2× week
  tumor exposure: above 760 uM-h

Reference: US9555137B2, “Uses of labeled HSP90 inhibitors” (Sloan-Kettering Institute for Cancer Research, priority 2011, dated 2017)
